Where “and” joins values, the source holds several entries; their conditions need not be identical. Equal values may be shown once.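 Protocol summary: plate cells (96-well), add compound at 5 concentrations, incubate 48 h, interpolate endpoints linearly. The concentration for 50% growth inhibition is given as GI50. The concentration for full growth arrest is given as TGI.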
How the values were obtained:
Assay in all cases: inhibition of tumour cell growth, NCI panel, 48 h
[1] = system: TK-10 renal
[2] = system: U251 CNS
[3] = system: 786-0 renal
[4] = system: HCT-116 colon
[5] = system: SK-MEL-5 melanoma
[6] = system: NCI-H522 lung
[7] = system: RXF 393 renal
[8] = system: SN12C renal
[9] = system: DU-145 prostate
[10] = system: NCI/ADR-RES ovarian

Compound	GI50 [1]	TGI [1]	GI50 [2]	TGI [2]	GI50 [3]	TGI [3]	GI50 [4]	TGI [4]	GI50 [5]	TGI [5]	GI50 [6]	TGI [6]	GI50 [7]	TGI [7]	GI50 [8]	TGI [8]	GI50 [9]	TGI [9]	GI50 [10]	TGI [10]
Cc1[cH-]c(=O)n(-c2ccccc2)n1.[Au+].[Au].c1ccc([PH+](c2ccccc2)c2ccccc2)cc1.c1ccc([PH+](c2ccccc2)c2ccccc2)cc1	16.6 µM	31.9 µM	4.97 µM and 13.1 µM	27.3 µM	1.6 µM and 4.03 µM	5.53 µM and 16.6 µM	20.2 µM	38.9 µM	16.8 µM	36.2 µM	3.46 µM and 12.4 µM	51.5 µM	0.756 µM and 6.89 µM	3.32 µM and 28.5 µM	37.5 µM	> 100 µM	–	–	–	–
Cc1cc(Nc2ccc(C)c(Cl)c2)n2nc(C(F)(F)F)nc2n1	31.2 µM	84.8 µM	23.5 µM	> 100 µM	18.8 µM	40 µM	17.2 µM	46.2 µM	14.3 µM	27.9 µM	–	–	19.4 µM	82.4 µM	18.8 µM	52.9 µM	17.6 µM	38.9 µM	27.1 µM	> 100 µM
C[C@@H]1CC[C@H]2C(C)(C)[C@H]3C[C@@]12CC[C@@]3(C)O	–	> 100 µM	–	–	–	> 100 µM	–	> 100 µM	–	> 100 µM	–	> 100 µM	–	–	–	60.5 µM	–	> 100 µM	–	> 100 µM
CN1C(=O)C(=O)N2c3ccc(Cl)cc3C3(c4ccccc4)N=CC12O3 (stereo unspecified)	–	18.1 µM	–	30.1 µM	–	28.9 µM	–	13.2 µM	–	17.6 µM	–	9.14 µM	–	6.34 µM	–	13.7 µM	–	–	–	–
O=c1[nH]c(-c2ccccc2)nc2cc(Cl)ccc12	–	> 100 µM	–	> 100 µM	–	> 100 µM	–	> 100 µM	–	> 100 µM	–	–	–	> 100 µM	–	–	–	–	–	–
N#CC(C(=O)CCC(=O)Nc1ccc(Cl)c(Cl)c1)c1ccccc1 (stereo unspecified)	–	–	–	> 100 µM	–	> 100 µM	–	> 100 µM	–	> 100 µM	–	–	–	> 100 µM	–	> 100 µM	–	–	–	–
CCCOc1nc(N)c2cnn(C3CCCCO3)c2n1 (stereo unspecified)	–	–	–	> 100 µM	–	> 100 µM	–	> 100 µM	–	> 100 µM	–	> 100 µM	–	> 100 µM	–	> 100 µM	–	–	–	–
O=C(NC1C=CCC2C(=O)N(c3ccccc3)C(=O)C12)OCc1ccccc1 (stereo unspecified)	–	> 100 µM	–	> 100 µM	–	> 100 µM	–	> 100 µM	–	> 100 µM	–	> 100 µM	–	> 100 µM	–	> 100 µM	–	–	–	–
O=C1C(C(Nc2ccccc2)c2ccccc2)=C([O-])c2ccccc21.O=C1C(C(Nc2ccccc2)c2ccccc2)=C([O-])c2ccccc21.[Cu+2] (stereo unspecified)	> 100 µM	> 100 µM	22.5 µM	65.4 µM	48.3 µM	> 100 µM	12 µM	> 100 µM	7.54 µM	> 100 µM	23.7 µM	73.6 µM	–	–	41.5 µM	> 100 µM	–	–	–	–
CN(C)CC1CCC/C1=N/OC(=O)c1ccccc1 (stereo unspecified)	–	> 100 µM	–	> 100 µM	–	> 100 µM	–	> 100 µM	–	> 100 µM	–	> 100 µM	–	> 100 µM	–	> 100 µM	–	–	–	–
CC1(C)CC(c2c[nH]c3ccccc23)=CC2=Nc3ccccc3C21O (stereo unspecified)	–	> 100 µM	–	> 100 µM	–	> 100 µM	–	> 100 µM	–	> 100 µM	–	> 100 µM	–	> 100 µM	–	> 100 µM	–	–	–	–
O=S1C(=c2ccc(=C3Sc4ccccc4S3)cc2)Sc2ccccc21 (stereo unspecified)	–	> 100 µM	–	28.2 µM	–	30.8 µM	–	> 56.6 µM	–	33.3 µM	–	> 100 µM	–	> 57.7 µM	–	29.3 µM	–	–	–	–
[O-][Cl+3]([O-])([O-])[O-].[O]=[Ru]=[O].c1ccc(-c2ccccn2)nc1.c1ccc(-c2ccccn2)nc1	–	–	> 100 µM	> 100 µM	> 100 µM	> 100 µM	–	–	82.5 µM	> 100 µM	> 100 µM	> 100 µM	39.1 µM	> 100 µM	50.9 µM	> 100 µM	–	–	–	–
O=c1c2cccnc2ncn1CCN1CCCCC1	–	> 100 µM	–	> 100 µM	–	> 100 µM	–	> 100 µM	–	> 100 µM	–	> 100 µM	–	> 100 µM	–	> 100 µM	–	–	–	–
CCC(C)SC1SCC2C(=O)N(C)C3(CC3C)C(=O)OCC(NC(=O)c3nc4ccccc4cc3O)C(=O)NC(C)C(=O)N(C)C1C(=O)N(C)C1(CC1C)C(=O)OCC(NC(=O)c1nc3ccccc3cc1O)C(=O)NC(C)C(=O)N2C (stereo unspecified)	0.000654 µM	–	–	0.0172 µM	–	1.3 µM	2.88e-05 µM	–	2.91e-05 µM	0.000112 µM and < 0.0142 µM	1.85e-05 µM	0.00022 µM	–	0.000154 µM	–	9.55 µM	–	–	–	6.15 µM
NCCNCCNCCN	> 100 µM	> 100 µM	> 100 µM	> 100 µM	> 100 µM	> 100 µM	> 100 µM	> 100 µM	> 100 µM	> 100 µM	–	–	> 100 µM	> 100 µM	> 100 µM	> 100 µM	> 100 µM	> 100 µM	> 100 µM	> 100 µM

Compound	GI50 [1]	TGI [1]	GI50 [2]	TGI [2]	GI50 [3]	TGI [3]	GI50 [4]	TGI [4]	GI50 [5]	TGI [5]	GI50 [6]	TGI [6]	GI50 [7]	TGI [7]	GI50 [8]	TGI [8]	GI50 [9]	TGI [9]	GI50 [10]	TGI [10]
CN(C)C=Nc1nc(=O)n(C2CCC(CO)O2)cc1F (stereo unspecified)	–	> 100 µM	–	> 100 µM	–	> 100 µM	–	–	–	> 100 µM	–	> 100 µM	–	> 100 µM	–	> 100 µM	–	–	–	–
COc1ccc2c(c1)[n+]([O-])c(C(N)=O)c(N)[n+]2[O-]	–	–	–	> 100 µM	–	> 100 µM	–	> 100 µM	–	> 100 µM	–	31.1 µM	–	–	–	> 100 µM	–	–	–	–
CCOC(=O)C1=C(C)N(NC(=O)Nc2ccccc2)C2(N)N(NC(=O)Nc3ccccc3)C(C)=C(C(=O)OCC)C12C(=O)OCC (stereo unspecified)	–	> 100 µM	–	> 100 µM	–	> 100 µM	–	80.2 µM	–	> 100 µM	–	> 100 µM	–	22.4 µM	–	3.01 µM	–	–	–	–
C/C(CN1C(=O)c2ccccc2C1=O)=N\NS(=O)(=O)c1ccc(Cl)cc1	–	> 100 µM	–	> 100 µM	–	> 100 µM	–	> 100 µM	–	> 100 µM	–	> 100 µM	–	–	–	> 100 µM	–	–	–	–
COc1ccc(/C=C/COC(C)=O)cc1OC	–	> 100 µM	–	> 100 µM	–	> 100 µM	–	–	–	> 100 µM	–	> 100 µM	–	> 100 µM	–	> 100 µM	–	–	–	–
Cn1cc(-c2cc3c(N4CCN(c5ncc([C@@](C)(N)c6ccc(F)cc6)cn5)CC4)ncnn3c2)cn1	–	–	3.67 µM	> 100 µM	3.15 µM	> 100 µM	3.15 µM	> 100 µM	–	–	–	–	2.66 µM	> 100 µM	5.46 µM	> 100 µM	> 100 µM	> 100 µM	–	–
O=C(/C=C/c1c(O)ccc2ccccc12)c1ccc([N+](=O)[O-])cc1	–	> 96.4 µM	–	> 100 µM	–	> 55.6 µM	–	37.4 µM	–	34.5 µM	–	31.2 µM	–	61.8 µM	–	39.7 µM	–	–	–	–
CN(C)CC1CCCC/C1=N/O (stereo unspecified)	–	> 100 µM	–	> 100 µM	–	> 100 µM	–	> 100 µM	–	> 100 µM	–	> 100 µM	–	> 100 µM	–	> 100 µM	–	–	–	–
CC(=O)[O-].CC(=O)[O-].O=C(N/N=C/c1cc(Cl)cc(Cl)c1O)c1ccncc1.[Cu+2]	–	> 100 µM	–	> 100 µM	–	> 100 µM	–	> 100 µM	–	> 100 µM	–	> 100 µM	–	> 100 µM	–	> 100 µM	–	–	–	–
COc1c(CC(C)=O)ccc2c1C(=O)c1ccc(C=O)c(OC(C)=O)c1C2=O	–	75.1 µM	–	36.8 µM	–	21.4 µM	–	24.9 µM	–	27.8 µM	–	8.39 µM	–	25.4 µM	–	27.6 µM	–	–	–	–
Cc1nnc2ccnn2c1C	> 100 µM	> 100 µM	> 100 µM	> 100 µM	> 100 µM	> 100 µM	> 100 µM	> 100 µM	23.8 µM	> 100 µM	66.3 µM	> 100 µM	–	–	> 100 µM	> 100 µM	> 100 µM	> 100 µM	20.5 µM	43.4 µM
N#CCCC[Si]12OCCN(CCO1)CCO2	–	> 100 µM	–	> 100 µM	–	> 100 µM	–	> 100 µM	–	> 100 µM	–	> 100 µM	–	> 100 µM	–	> 100 µM	–	–	–	–
Cc1ccc(S(=O)(=O)N2CCC2c2ccccc2)cc1 (stereo unspecified)	–	> 100 µM	–	> 100 µM	–	> 100 µM	–	> 100 µM	–	> 100 µM	–	> 100 µM	–	> 100 µM	–	> 100 µM	–	–	–	–
COc1ccc(CN2C(=O)C(Cl)=C(Nc3cccc(C(F)(F)F)c3)C2=O)cc1	16.8 µM	46.3 µM	2.75 µM	17 µM	8.02 µM	30.1 µM	3.45 µM	15.4 µM	4.38 µM	18.5 µM	–	–	0.0458 µM	6.01 µM	12.4 µM	30.8 µM	8.19 µM	21.6 µM	7.43 µM	45.6 µM
C[C@@]1(O)CC[C@]2(C)C3CCCC3[C@H]12 (stereo partly specified)	–	> 100 µM	–	> 100 µM	–	> 100 µM	–	> 100 µM	–	> 100 µM	–	> 100 µM	–	> 100 µM	–	> 100 µM	–	–	–	–
C=C(C)C12OC1[C@@]1(C)C(=CC2=O)CCC(O)[C@@H]1C (stereo partly specified)	–	> 100 µM	–	14.4 µM	–	13.4 µM	–	14.2 µM	–	36.7 µM	–	5.91 µM	–	–	–	11.5 µM	–	33.1 µM	–	–

Reference: PubChem BioAssay (NCI)
